# Key:
# rat [1] = conditions: Multigenerational reproductive toxicity study, wistar, Oral, Feed, dose end: 2 generation
# mouse [2] = conditions: Subchronic oral toxicity in rodents, cd1, Feed, dose end: 13 week, group: systemic
# rat [3] = conditions: Subchronic oral toxicity in rodents, wistar, Feed, dose end: 14 week, group: systemic
# dog [4] = conditions: Chronic toxicity; beagle; Oral; Feed; dose end: 52 week; group: systemic; systemic / organ weight / adrenal gland / relative to body weight + systemic / organ weight / testes / relative to body weight + systemic / …
# mouse [5] = conditions: Carcinogenicity, cd1, Oral, Feed, dose end: 18 month, group: systemic
# dog [6] = conditions: Subchronic oral toxicity in nonrodent, beagle, Feed, dose end: 14 week, group: systemic
# rat [7] = conditions: Subchronic oral toxicity in rodents, wistar, Feed, dose end: 13 week, group: systemic, systemic / clinical chemistry / alanine aminotransferase (alt/sgpt) / alanine aminotransferase (alt/sgpt) + systemic / clinical chemistry / …
# rat [8] = conditions: Combined chronic toxicity/carcinogenicity, wistar, Oral, Feed, dose end: 120 week, group: systemic
# [9] = group: offspring, systemic / in life observation / body weight / offspring (pup) weight + systemic / in life observation / body weight / offspring (pup) …
# [10] = group: parental, systemic / organ weight / liver / absolute + systemic / organ weight / liver / relative to body weight
# [11] = systemic / pathology microscopic / liver / hypertrophy + systemic / pathology microscopic / testes / hypertrophy
# [12] = systemic / pathology microscopic / liver / hypertrophy + systemic / pathology microscopic / testes / hypertrophy + systemic / clinical …
# [13] = systemic / clinical chemistry / thyroid stimulating hormone (thyrotropin) (tsh) / thyroid stimulating hormone (=thyrotropin) (tsh)
# [14] = systemic / organ weight / adrenal gland / nos + systemic / organ weight / kidney / absolute + systemic / organ weight / kidney / relative to…
# [15] = systemic / pathology microscopic / adrenal gland / pigmentation
# [16] = systemic / clinical chemistry / alderin epoxidase / alderin epoxidase + systemic / clinical chemistry / ethoxycoumarin deethylase / …
# [17] = systemic / organ weight / adrenal gland / relative to body weight + systemic / pathology microscopic / adrenal gland / vacuolization …
# [18] = systemic / clinical chemistry / alanine aminotransferase (alt/sgpt) / alanine aminotransferase (alt/sgpt) + systemic / clinical chemistry / …
# [19] = systemic / pathology microscopic / liver / basophilic focus
smiles,measurement,setting,value
CCC(C)(C)C(=O)OC1=C(c2ccc(Cl)cc2Cl)C(=O)OC12CCCCC2 [Spirodiclofen],LEL,rat [1]; [9],30.2 mg/kg/day
same,LOAEL,rat [1]; [9],30.2 mg/kg/day
same,NEL,rat [1]; [9],6.4 mg/kg/day
same,NOAEL,rat [1]; [9],6.4 mg/kg/day
same,LOAEL,"rat [1]; group: parental, systemic / in life observation / body weight / body weight + systemic / organ weight / liver / absolute",26.2 mg/kg/day
same,NOAEL,"rat [1]; group: parental, systemic / in life observation / body weight / body weight + systemic / organ weight / liver / absolute + systemic / in life observation / …",5.2 mg/kg/day
same,LEL,rat [1]; [10],5.2 mg/kg/day
same,NEL,rat [1]; [10],< 5.2 mg/kg/day
same,LEL,mouse [2]; [11],164 mg/kg/day
same,LOAEL,mouse [2]; [11],164 mg/kg/day
same,NEL,mouse [2]; [12],15 mg/kg/day
same,NOAEL,mouse [2]; [12],15 mg/kg/day
same,LEL,rat [3]; [13],8.1 mg/kg/day
same,NEL,rat [3]; [13],< 8.1 mg/kg/day
same,LOAEL,rat [3]; systemic / pathology microscopic / adrenal gland / vacuolization cytoplasmic,47.1 mg/kg/day
same,NOAEL,rat [3]; systemic / pathology microscopic / adrenal gland / vacuolization cytoplasmic + systemic / clinical chemistry / alanine aminotransferase (alt…,8.1 mg/kg/day
same,LEL,dog [4],4.33 mg/kg/day
same,LOAEL,dog [4],4.33 mg/kg/day
same,NEL,dog [4],1.38 mg/kg/day
same,NOAEL,dog [4],1.38 mg/kg/day
same,LOAEL,mouse [5]; [14],610 mg/kg/day
same,NOAEL,mouse [5]; [14],4.1 mg/kg/day
same,LEL,mouse [5]; [15],5.1 mg/kg/day
same,NEL,mouse [5]; [15],< 5.1 mg/kg/day
same,LEL,dog [6]; [16],7.7 mg/kg/day
same,NEL,dog [6]; [16],< 7.7 mg/kg/day
same,LOAEL,dog [6]; [17],8.4 mg/kg/day
same,NOAEL,dog [6]; [17],< 8.4 mg/kg/day
O=C(NC(=O)c1c(F)cccc1F)Nc1cc(Cl)c(F)c(Cl)c1F [Teflubenzuron],LEL,rat [7],81.6 mg/kg/day
same,LOAEL,rat [7],81.6 mg/kg/day
same,NEL,rat [7],8 mg/kg/day
same,NOAEL,rat [7],8 mg/kg/day
same,LOAEL,rat [8]; [18],26 mg/kg/day
same,NOAEL,rat [8]; [18],5.1 mg/kg/day
same,LEL,rat [8]; [19],1.3 mg/kg/day
same,NEL,rat [8]; [19],< 1.3 mg/kg/day
